# How the values were obtained:
# Assay in all cases: KinaseProfiler off-target kinase profiling
# Format in all cases: biochemical
# Conditions in all cases: 10 μM, ATP near Km
# CDK9/cyclinT1 = CDK9/cyclinT1 (Homo sapiens (Human), UniProt P50750)
# Procedure, shortened: (§1)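 Compounds screened at 10 μM against a full kinase panel, ATP near each kinase's Km. Run in duplicate; values are percent of control (POC), mean of two replicates.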
# EphA2 = EphA2 (Homo sapiens (Human), UniProt P29317)
# Procedure, shortened: as §1
# Hck = Hck (Homo sapiens (Human), UniProt P08631)
# Procedure, shortened: as §1
# Flt3 = Flt3 (Homo sapiens (Human), UniProt P36888)
# Procedure, shortened: as §1
# GRK7 = GRK7 (Homo sapiens (Human), UniProt Q8WTQ7)
# Procedure, shortened: as §1
# CHK1 = CHK1 (Homo sapiens (Human), UniProt O14757)
# Procedure, shortened: as §1
# TSSK2 = TSSK2 (Homo sapiens (Human), UniProt Q96PF2)
# Procedure, shortened: as §1
# PDGFRalpha = PDGFRalpha (Homo sapiens (Human), UniProt P16234)
# PDGFRalpha, sequence (P16234 24-1089): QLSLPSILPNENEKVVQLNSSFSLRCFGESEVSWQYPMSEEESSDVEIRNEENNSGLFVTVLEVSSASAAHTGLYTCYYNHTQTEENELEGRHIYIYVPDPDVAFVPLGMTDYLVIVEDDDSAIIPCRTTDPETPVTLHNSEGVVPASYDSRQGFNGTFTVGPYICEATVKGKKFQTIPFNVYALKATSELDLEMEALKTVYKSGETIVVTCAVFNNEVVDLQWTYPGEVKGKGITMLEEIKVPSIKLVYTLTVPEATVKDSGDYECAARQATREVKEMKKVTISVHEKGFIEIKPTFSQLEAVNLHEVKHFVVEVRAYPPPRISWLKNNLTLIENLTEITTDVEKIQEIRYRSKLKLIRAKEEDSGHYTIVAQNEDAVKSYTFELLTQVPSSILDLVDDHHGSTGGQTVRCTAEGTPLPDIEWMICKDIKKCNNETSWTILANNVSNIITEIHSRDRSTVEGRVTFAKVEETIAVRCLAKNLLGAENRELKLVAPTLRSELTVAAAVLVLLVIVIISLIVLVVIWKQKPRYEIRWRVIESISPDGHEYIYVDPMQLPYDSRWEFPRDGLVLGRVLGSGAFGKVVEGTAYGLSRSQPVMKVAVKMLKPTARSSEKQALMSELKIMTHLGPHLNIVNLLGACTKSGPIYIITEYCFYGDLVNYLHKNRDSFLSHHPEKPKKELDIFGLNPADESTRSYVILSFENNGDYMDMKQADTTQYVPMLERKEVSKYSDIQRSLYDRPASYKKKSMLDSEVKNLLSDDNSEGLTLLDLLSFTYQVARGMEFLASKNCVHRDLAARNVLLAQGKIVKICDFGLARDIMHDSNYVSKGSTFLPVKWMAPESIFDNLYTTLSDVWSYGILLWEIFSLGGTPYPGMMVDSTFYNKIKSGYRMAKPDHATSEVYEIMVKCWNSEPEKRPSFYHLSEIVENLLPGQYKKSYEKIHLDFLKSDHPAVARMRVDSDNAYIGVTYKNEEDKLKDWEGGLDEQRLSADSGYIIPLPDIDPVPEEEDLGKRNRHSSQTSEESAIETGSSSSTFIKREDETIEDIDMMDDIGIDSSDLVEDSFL
# Procedure, shortened: as §1
# Ros = Ros (Homo sapiens (Human), UniProt P08922)
# Procedure, shortened: as §1
# MINK = MINK (Homo sapiens (Human), UniProt Q8N4C8)
# MINK, sequence (Q8N4C8 whole entry): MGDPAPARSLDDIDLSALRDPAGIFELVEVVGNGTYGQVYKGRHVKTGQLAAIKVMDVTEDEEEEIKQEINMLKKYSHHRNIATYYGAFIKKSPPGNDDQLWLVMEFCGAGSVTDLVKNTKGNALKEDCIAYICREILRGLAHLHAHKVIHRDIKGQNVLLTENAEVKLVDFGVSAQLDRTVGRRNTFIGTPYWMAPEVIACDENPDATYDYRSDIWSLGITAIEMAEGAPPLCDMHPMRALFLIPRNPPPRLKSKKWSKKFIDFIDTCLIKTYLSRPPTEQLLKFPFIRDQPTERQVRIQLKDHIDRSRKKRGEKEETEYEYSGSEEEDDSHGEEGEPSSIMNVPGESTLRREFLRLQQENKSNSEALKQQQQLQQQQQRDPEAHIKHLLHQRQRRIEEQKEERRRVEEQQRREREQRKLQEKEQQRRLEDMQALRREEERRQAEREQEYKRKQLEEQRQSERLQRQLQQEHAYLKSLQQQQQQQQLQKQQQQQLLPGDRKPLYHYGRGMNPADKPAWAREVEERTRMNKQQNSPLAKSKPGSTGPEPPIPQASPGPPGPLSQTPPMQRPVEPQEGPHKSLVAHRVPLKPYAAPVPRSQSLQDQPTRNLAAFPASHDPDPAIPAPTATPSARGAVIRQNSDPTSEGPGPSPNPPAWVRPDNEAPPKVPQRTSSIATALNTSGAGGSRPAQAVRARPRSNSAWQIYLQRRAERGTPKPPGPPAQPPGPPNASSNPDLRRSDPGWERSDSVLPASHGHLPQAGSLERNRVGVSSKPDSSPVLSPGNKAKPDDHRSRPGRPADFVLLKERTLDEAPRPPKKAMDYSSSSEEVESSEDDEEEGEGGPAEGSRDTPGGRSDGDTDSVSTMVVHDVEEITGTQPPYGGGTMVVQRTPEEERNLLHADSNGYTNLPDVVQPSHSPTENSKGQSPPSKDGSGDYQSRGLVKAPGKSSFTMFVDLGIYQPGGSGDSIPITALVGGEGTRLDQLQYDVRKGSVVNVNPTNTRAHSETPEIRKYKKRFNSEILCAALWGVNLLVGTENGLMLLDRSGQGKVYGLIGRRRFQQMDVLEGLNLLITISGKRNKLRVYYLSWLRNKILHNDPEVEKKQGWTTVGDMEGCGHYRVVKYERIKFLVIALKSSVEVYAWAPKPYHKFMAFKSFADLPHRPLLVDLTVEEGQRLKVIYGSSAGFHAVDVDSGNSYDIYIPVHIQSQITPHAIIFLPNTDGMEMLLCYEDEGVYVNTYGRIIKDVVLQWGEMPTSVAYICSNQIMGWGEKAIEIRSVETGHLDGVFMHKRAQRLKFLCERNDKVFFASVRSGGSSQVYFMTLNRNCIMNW
# Procedure, shortened: as §1
# MAPKAP-K5 = MAPKAP-K5 (Homo sapiens (Human), UniProt Q8IW41)
# Procedure, shortened: as §1
# HIPK3 = HIPK3 (Homo sapiens (Human), UniProt Q9H422)
# Procedure, shortened: as §1
# CDK2/cyclinA = CDK2/cyclinA (Homo sapiens (Human), UniProt P24941)
# Procedure, shortened: as §1
# BTK = BTK (Homo sapiens (Human), UniProt Q06187)
# Procedure, shortened: as §1
# p38alpha = p38alpha (Homo sapiens (Human), UniProt Q16539)
# p38alpha, sequence (Q16539 whole entry): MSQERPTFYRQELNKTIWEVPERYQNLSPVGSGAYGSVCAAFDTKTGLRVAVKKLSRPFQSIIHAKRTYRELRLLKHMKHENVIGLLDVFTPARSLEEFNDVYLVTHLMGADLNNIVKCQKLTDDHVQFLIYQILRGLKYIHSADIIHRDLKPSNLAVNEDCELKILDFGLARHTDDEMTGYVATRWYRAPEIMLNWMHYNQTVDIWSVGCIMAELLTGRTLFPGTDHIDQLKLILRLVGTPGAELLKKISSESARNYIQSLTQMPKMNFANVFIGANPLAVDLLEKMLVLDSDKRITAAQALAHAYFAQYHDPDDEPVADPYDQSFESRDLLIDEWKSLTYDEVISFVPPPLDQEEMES
# Procedure, shortened: as §1
# Txk = Txk (Homo sapiens (Human), UniProt P42681)
# Procedure, shortened: as §1
# TrkB = TrkB (Homo sapiens (Human), UniProt Q16620)
# TrkB, sequence (Q16620 32-822): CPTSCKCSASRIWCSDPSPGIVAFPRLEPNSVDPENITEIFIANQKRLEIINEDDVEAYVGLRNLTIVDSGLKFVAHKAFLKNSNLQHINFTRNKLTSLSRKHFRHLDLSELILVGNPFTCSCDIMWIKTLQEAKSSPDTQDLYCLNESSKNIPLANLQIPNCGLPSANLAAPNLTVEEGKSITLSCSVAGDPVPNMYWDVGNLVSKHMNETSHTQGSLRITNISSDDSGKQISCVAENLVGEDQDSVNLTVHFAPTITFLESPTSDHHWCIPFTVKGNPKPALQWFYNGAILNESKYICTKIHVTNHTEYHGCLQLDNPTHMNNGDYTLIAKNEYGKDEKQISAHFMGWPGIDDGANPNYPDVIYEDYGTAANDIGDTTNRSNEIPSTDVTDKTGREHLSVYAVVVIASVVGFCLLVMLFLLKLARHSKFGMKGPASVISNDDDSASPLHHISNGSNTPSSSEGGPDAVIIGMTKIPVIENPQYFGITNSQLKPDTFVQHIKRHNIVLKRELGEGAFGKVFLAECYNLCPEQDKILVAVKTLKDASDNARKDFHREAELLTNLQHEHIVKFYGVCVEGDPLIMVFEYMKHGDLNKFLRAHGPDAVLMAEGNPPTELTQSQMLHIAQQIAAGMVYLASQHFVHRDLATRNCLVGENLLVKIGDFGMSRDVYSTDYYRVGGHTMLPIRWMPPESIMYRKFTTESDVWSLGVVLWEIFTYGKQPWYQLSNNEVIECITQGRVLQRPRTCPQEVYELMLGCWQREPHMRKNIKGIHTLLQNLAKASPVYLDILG
# Procedure, shortened: as §1
# MRCKalpha = MRCKalpha (Homo sapiens (Human), UniProt Q5VT25)
# Procedure, shortened: as §1
# IKKbeta = IKKbeta (Homo sapiens (Human), UniProt O14920)
# Procedure, shortened: as §1
# MAP4K2 = MAP4K2 (Homo sapiens (Human), UniProt Q12851)
# MAP4K2, sequence (Q12851 whole entry): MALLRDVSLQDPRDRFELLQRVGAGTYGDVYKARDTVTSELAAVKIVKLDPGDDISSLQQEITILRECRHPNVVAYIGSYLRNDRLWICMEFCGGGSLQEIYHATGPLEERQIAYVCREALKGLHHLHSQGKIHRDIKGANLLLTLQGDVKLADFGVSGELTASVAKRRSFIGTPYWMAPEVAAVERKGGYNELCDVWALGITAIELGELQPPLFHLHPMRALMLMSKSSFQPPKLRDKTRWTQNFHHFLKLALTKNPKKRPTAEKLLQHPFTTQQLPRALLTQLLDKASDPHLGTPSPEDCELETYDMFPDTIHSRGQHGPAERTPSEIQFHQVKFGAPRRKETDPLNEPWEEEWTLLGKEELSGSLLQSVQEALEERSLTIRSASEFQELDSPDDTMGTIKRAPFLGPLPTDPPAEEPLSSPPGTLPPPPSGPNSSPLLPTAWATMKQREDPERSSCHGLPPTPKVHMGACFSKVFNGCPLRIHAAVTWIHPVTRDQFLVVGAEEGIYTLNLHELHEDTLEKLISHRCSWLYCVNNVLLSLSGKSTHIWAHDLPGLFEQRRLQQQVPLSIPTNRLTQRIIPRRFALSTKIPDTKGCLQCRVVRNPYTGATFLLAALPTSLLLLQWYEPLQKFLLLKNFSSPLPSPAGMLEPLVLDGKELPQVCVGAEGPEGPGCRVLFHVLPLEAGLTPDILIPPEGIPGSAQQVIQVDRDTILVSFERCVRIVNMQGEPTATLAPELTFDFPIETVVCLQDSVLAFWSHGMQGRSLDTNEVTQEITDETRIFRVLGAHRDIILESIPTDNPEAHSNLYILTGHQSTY
# Procedure, shortened: as §1
# IRAK1 = IRAK1 (Homo sapiens (Human), UniProt P51617)
# Procedure, shortened: as §1
# PRKG1alpha = PRKG1alpha (Homo sapiens (Human), UniProt Q13976)
# Procedure, shortened: as §1
# CK1gamma1 = CK1gamma1 (Homo sapiens (Human), UniProt Q9HCP0)
# CK1gamma1, sequence (Q9HCP0 whole entry): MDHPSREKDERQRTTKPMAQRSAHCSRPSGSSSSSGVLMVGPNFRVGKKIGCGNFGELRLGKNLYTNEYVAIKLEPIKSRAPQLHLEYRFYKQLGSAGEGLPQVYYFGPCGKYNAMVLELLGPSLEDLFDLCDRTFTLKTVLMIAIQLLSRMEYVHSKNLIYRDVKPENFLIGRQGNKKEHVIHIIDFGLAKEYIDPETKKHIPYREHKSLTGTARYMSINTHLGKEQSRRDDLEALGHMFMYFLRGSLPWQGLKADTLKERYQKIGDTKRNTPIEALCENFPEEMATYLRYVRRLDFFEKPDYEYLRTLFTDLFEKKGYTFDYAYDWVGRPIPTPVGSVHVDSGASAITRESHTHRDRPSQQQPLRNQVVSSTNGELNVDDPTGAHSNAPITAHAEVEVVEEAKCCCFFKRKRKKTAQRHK
# Procedure, shortened: as §1
# ULK2 = ULK2 (Homo sapiens (Human), UniProt Q8IYT8)
# Procedure, shortened: as §1
# Pim-3 = Pim-3 (Homo sapiens (Human), UniProt Q86V86)
# Procedure, shortened: as §1
# CK1_y = test system: CK1_y
# Procedure, shortened: as §1
# BLK = test system: BLK
# Procedure, shortened: as §1
# EphB2 = EphB2 (Homo sapiens (Human), UniProt P29323)
# Procedure, shortened: as §1
# mTOR/FKBP12 = mTOR/FKBP12 (Homo sapiens (Human), UniProt P42345)
# Procedure, shortened: as §1
# Fms = Fms (Homo sapiens (Human), UniProt P07333)
# Procedure, shortened: as §1
# Fer = Fer (Homo sapiens (Human), UniProt P16591)
# Procedure, shortened: as §1
# PTK6 = PTK6 (Homo sapiens (Human), UniProt Q13882)
# Procedure, shortened: as §1
# Plk1 = Plk1 (Homo sapiens (Human), UniProt P53350)
# Procedure, shortened: as §1
# PTK5 = PTK5 (Homo sapiens (Human), UniProt P42685)
# Procedure, shortened: as §1
# Mer = Mer (Homo sapiens (Human), UniProt Q12866)
# Procedure, shortened: as §1
# JAK2 = JAK2 (Homo sapiens (Human), UniProt O60674)
# Procedure, shortened: as §1
# ULK3 = ULK3 (Homo sapiens (Human), UniProt Q6PHR2)
# Procedure, shortened: as §1
# CDK1/cyclinB = CDK1/cyclinB (Homo sapiens (Human), UniProt P06493)
# Procedure, shortened: as §1
# Lyn = Lyn (Homo sapiens (Human), UniProt P07948)
# Procedure, shortened: as §1
# ARK5 = ARK5 (Homo sapiens (Human), UniProt O60285)
# Procedure, shortened: as §1
SMILES,Avg POC (CDK9/cyclinT1),Avg POC (EphA2),Avg POC (Hck),Avg POC (Flt3),Avg POC (GRK7),Avg POC (CHK1),Avg POC (TSSK2),Avg POC (PDGFRalpha),Avg POC (Ros),Avg POC (MINK),Avg POC (MAPKAP-K5),Avg POC (HIPK3),Avg POC (CDK2/cyclinA),Avg POC (BTK),Avg POC (p38alpha),Avg POC (Txk),Avg POC (TrkB),Avg POC (MRCKalpha),Avg POC (IKKbeta),Avg POC (MAP4K2),further results
"COCCN1C[C@@H](NC(=O)Nc2c(C)c(-c3ccnc(C)c3)nn2-c2ccccc2)[C@H](c2ccc(F)c(F)c2)C1 [Example 2, 1-((3S,4R)-4-(3,4-difluorophenyl)-1-(2-methoxyethyl)pyrrolidin-3-yl)-3-(4-methyl-3-(2-methylpyridin-4-yl)-1-phenyl-1H-pyrazol-5-yl)urea]",104 POC,110.5 POC,116.5 POC,119.5 POC,104 POC,114.5 POC,107 POC,110.5 POC,105 POC,98 POC,100 POC,99.5 POC,111 POC,109 POC,112 POC,99.5 POC,1.5 POC,113 POC,87 POC,105.5 POC,Avg POC (IRAK1): 112.5 POC; Avg POC (PRKG1alpha): 108 POC; Avg POC (CK1gamma1): 92 POC; Avg POC (ULK2): 96.5 POC; Avg POC (Pim-3): 104 POC; Avg POC (CK1_y): 103 POC; Avg POC (BLK): 92 POC; Avg POC (EphB2): 109.5 POC; Avg POC (mTOR/FKBP12): 108.5 POC; Avg POC (Fms): 101.5 POC; Avg POC (Fer): 105 POC; Avg POC (PTK6): 101 POC; Avg POC (Plk1): 100 POC; Avg POC (PTK5): 108 POC; Avg POC (Mer): 90.5 POC; Avg POC (JAK2): 112.5 POC; Avg POC (ULK3): 100 POC; Avg POC (CDK1/cyclinB): 104 POC; Avg POC (Lyn): 112 POC; Avg POC (ARK5): 89 POC
"COCCN1C[C@@H](NC(=O)Nc2c(C)c(-c3cnc(C)nc3)nn2-c2ccccc2)[C@H](c2cc(F)cc(F)c2)C1 [Example 14, 1-((3S,4R)-4-(3,5-difluorophenyl)-1-(2-methoxyethyl)pyrrolidin-3-yl)-3-(4-methyl-3-(2-methylpyrimidin-5-yl)-1-phenyl-1H-pyrazol-5-yl)urea]",104 POC,96 POC,108.5 POC,90 POC,97 POC,104.5 POC,107.5 POC,114.5 POC,91 POC,89.5 POC,123.5 POC,89 POC,113.5 POC,97.5 POC,101 POC,98.5 POC,4.5 POC,124.5 POC,99 POC,99.5 POC,Avg POC (IRAK1): 108.5 POC; Avg POC (PRKG1alpha): 100.5 POC; Avg POC (CK1gamma1): 80 POC; Avg POC (ULK2): 106.5 POC; Avg POC (Pim-3): 108.5 POC; Avg POC (CK1_y): 97.5 POC; Avg POC (BLK): 91.5 POC; Avg POC (EphB2): 120 POC; Avg POC (mTOR/FKBP12): 113 POC; Avg POC (Fms): 76 POC; Avg POC (Fer): 100.5 POC; Avg POC (PTK6): 108.5 POC; Avg POC (Plk1): 113 POC; Avg POC (PTK5): 91 POC; Avg POC (Mer): 78 POC; Avg POC (JAK2): 109 POC; Avg POC (ULK3): 98 POC; Avg POC (CDK1/cyclinB): 97 POC; Avg POC (Lyn): 105.5 POC; Avg POC (ARK5): 85 POC

# Source: patent US9896435B2, “N-pyrrolidinyl,N′-pyrazolyl-urea, thiourea, guanidine and cyanoguanidine compounds as TrkA kinase inhibitors” (Array BioPharma Inc., priority 2012, dated 2018)
